Measurements reported in publication PMC11855827, “High-Throughput Screening of Five Compound Libraries for Anthelmintic Activity and Toxicity Leads to the Discovery of Two Flavonoid Compounds” (International Journal of Molecular Sciences, 2025).
Where two headings read alike, the source gives them in different places.

System: C. elegans
[1] = Table S2, C. elegans SS assay, 110 μM, 0 h, averages of 4 data points
[2] = Table S2, C. elegans SS assay, 110 μM, 24 h, averages of 4 data points

| Molecule | Percentage of motility inhibition 0 h [1] | Percentage of motility inhibition 24 h [2] | Percentage of motility inhibition 0 h (110 µM) | Percentage of motility inhibition 24 h (110 µM) |
| --- | --- | --- | --- | --- |
| C=C1[C@H](O)C[C@H]2[C@@H](/C=C(\C)C(=O)[C@@]3(O)C[C@H](C)[C@H](O)[C@@H]3[C@H]1O)C2(C)C [7beta-Hydroxylathyrol] | 6% | 14% |  |  |
| C[C@H]1O[C@@H](O[C@H]2CC[C@@]3(C)[C@@H](CC[C@]4(C)[C@@H]3C=CC3=C5CC(C)(C)CC[C@]5(CO)[C@H](O)C[C@]34C)[C@]2(C)CO)[C@H](O)[C@@H](O[C@@H]2O[C@H](CO)[C@@H](O)[C@H](O)[C@H]2O)[C@H]1O [Saikosaponin B2] | 19% | 11% |  |  |
| CC(C)=CCC[C@H](C)CC=O [(S)-(-)-Citronellal] | 18% | 61% |  |  |
| Cc1ccn(C)n1 [1,3‐Dimethylpyrazole] | 6% | 3% |  |  |
| CC1=NCCc2c1[nH]c1cc(O)ccc21.Cl [Harmalol (hydrochloride)] | 17% | 2% |  |  |
| S=C=Nc1ccc(N=C=S)cc1 [p‐Phenylene diisothiocyanate] | 2% | 9% |  |  |
| CC(C)=C1C/C=C(\C)CC/C=C(\C)CC1=O [Germacrone] | 12% | 9% |  |  |
| C=C(C)[C@@H]1CC[C@]2(C(=O)O[C@@H]3O[C@H](CO[C@@H]4O[C@H](CO)[C@@H](O[C@@H]5O[C@@H](C)[C@H](O)[C@@H](O)[C@H]5O)[C@H](O)[C@H]4O)[C@@H](O)[C@H](O)[C@H]3O)CC[C@]3(C)[C@H](CC[C@@H]4[C@@]5(C)CC[C@H](O[C@@H]6OC[C@H](O)[C@H](O)[C@H]6O[C@@H]6O[C@@H](C)[C@H](O)[C@@H](O)[C@H]6O)[C@@](C)(CO)[C@@H]5CC[C@]43C)[C@@H]12 [Pulchinenoside C] | 4% | 0% |  |  |
| COc1cccc(C[n+]2cn(Cc3ccccc3)c(C)c2C)c1.[Cl-] [Lepidiline C] | 0% | 0% |  |  |
| COc1cc2c(cc1O)C1Cc3ccc(OC)c(O)c3C[N+]1(C)CC2.[Cl-] (stereo not shown) [Cyclanoline (chloride)] | 7% | 12% |  |  |
| Ginkgolide C | 12% | 0% |  |  |
| CC(C)=CCC[C@@](C)(O)[C@H]1CC[C@]2(C)[C@@H]1[C@H](O)C[C@@H]1[C@@]3(C)CC[C@H](O)C(C)(C)[C@@H]3[C@@H](O)C[C@]12C [20(R)-Protopanaxatriol] | 0% | 21% |  |  |
| CC(=O)O[C@H]1[C@H](O[C@H]2CC[C@]34C[C@]35CC[C@]3(C)[C@@H]([C@@]6(C)CC[C@@H](C(C)(C)O)O6)[C@@H](O)C[C@@]3(C)[C@@H]5C[C@H](O[C@@H]3O[C@H](CO)[C@@H](O)[C@H](O)[C@H]3O)[C@H]4C2(C)C)OC[C@@H](O)[C@@H]1O [Astragaloside II] | 5% | 45% |  |  |
| OC[C@@H](O)[C@@H](O)[C@H](O)[C@H](O)CO (racemic) [DL-Mannitol] | 0% | 15% |  |  |
| C=C(C)[C@@H]1CC[C@]2(C)CC[C@]3(C)[C@H](CC[C@@H]4[C@@]5(C)CC[C@H](OC(C)=O)C(C)(C)[C@@H]5CC[C@]43C)[C@@H]12 [Lupeol acetate] | 0% | 0% |  |  |
| C=C1[C@H]2C[C@H]2[C@]2(C)Cc3occ(C)c3[C@H](O)[C@@H]12 [Lindenenol] | 0% | 19% |  |  |
| Br.CO[C@H]1CC=C2CCN3CCC4=C(CC(=O)OC4)[C@]23C1 [Dihydro‐β‐er ythroidine (hydrobromide)] | 7% | 6% |  |  |
| O=c1cc(-c2ccc(O)cc2)oc2cc(O)ccc12 [7,4'‐Dihydroxyflavone] | 5% | 0% |  |  |
| O=C1N[C@@H]2C(=C[C@H](O)[C@@H](O)[C@H]2O)c2cc3c(c(O)c21)OCO3 [Narciclasine] | 32% | 14% |  |  |
| CCCN1C[C@H](C)[C@@H](O)[C@](C)(O)[C@@H](CC)OC(=O)[C@H](C)[C@@H](O[C@H]2C[C@@](C)(OC)[C@@H](O)[C@H](C)O2)[C@H](C)[C@@H](O[C@@H]2O[C@H](C)C[C@H](N(C)C)[C@H]2O)[C@](C)(O)C[C@H]1C [Gamithromycin] | 37% | 44% |  |  |
| [Cl-].c1c2c(cc3c1OCO3)-c1cc3ccc4c(c3c[n+]1CC2)OCO4 [Coptisine (chloride)] | 1% | 6% |  |  |
| CNC(=O)Oc1ccc2c(c1)[C@]1(C)CCN(C)[C@@H]1N2C.O=C(O)c1ccccc1O [Physostigmine (salicylate)] |  |  | 0% | 0% |
| COc1cc2c[n+](C)c3c4cc5c(cc4ccc3c2cc1OC)OCO5.[Cl-] [Nitidine (chloride)] | 0% | 7% |  |  |
